Patent US8623832B2, “Peptide compositions that bind TLR-4” (The Board of Regents of the University of Oklahoma, priority 2011, dated 2014)
Where no end group is shown, it is not given here.

Columns and labels:
[1] = molecular target: T1, recombinant TLR4-MD2 protein (Homo sapiens, UniProt O00206); experiment: Microwell-based binding to immobilized recombinant TLR4-MD2 protein; details: for binding to surface-bound TLR4-MD2 protein: 0.25 μg TLR4-MD2 per well, detected with SP-A-specific antibody
T1 construct: extracellular domain of human TLR4 protein (Glu 24-Lys 631 amino acids); 10x histidine tag (C); signal peptide from human CD33 (N); purchased R&D Systems, MN; host or cells: mouse myeloma cell line NS0
Description: (§1) Interaction between purified baboon lung SP-A, SP-A-peptides and TLR4-MD2 proteins using a microwell-based method: The binding between the purified baboon lung SP-A, SP-A-peptides and recombinant TLR4-MD2 and MD2 proteins was studied in vitro using a microwell-based method (Awasthi et al., 2004). The soluble, recombinant TLR4-MD2 protein (R&D Systems, MN) consisted of a mixture of recombinant human-TLR4 and MD2 proteins. The recombinant extracellular domain of human TLR4 protein (Glu 24-Lys 631 amino acids), was joined with a DNA sequence encoding the signal peptide from human CD33 and a 10× histidine tag at the C-terminus (Accession # O00206). For MD2 protein, a DNA sequence encoding the signal peptide from human CD33 was joined with the mature region of human MD-2 (mature region, Glu 17-Asn 160 amino acids) and a 10× histidine tag at the C-terminus (Accession # Q9Y6Y9). The chimeric proteins were expressed in a mouse myeloma cell line, NS0 (R&D Systems, MN). The proteins were obtained from the manufacturer in carrier-free condition and reconstituted in PBS containing 0.1% low-endotoxin BSA (MP Biomedicals, OH). MD2, an adaptor molecule for TLR4, is expressed by immune cells, and is known to bind TLR4 in a non-covalent manner (Jain et al., 2008). Thus, the binding of SP-A to the recombinant MD2 protein (R&D Systems, MN) was also studied.
(§2) For the binding assay, microwell ultra-high-protein binding Immunolon 4HBX strips (Thermo Scientific, MA) were coated with soluble recombinant-TLR4-MD2 protein or MD2 protein (R&D Systems, 250 ng per well, diluted in 0.1 M NaHCO3, pH 9.6) overnight at room temperature. The plates were washed three times, and non-specific sites were blocked for 2 h at room temperature using phosphate buffered saline containing 0.1% triton-X 100 and 3% nonfat milk (Buffer A). […] The immune-complex was detected using 3,3′,5,5′-tetramethylbenzidine (TMB) substrate system (Sigma-Aldrich, MO). The reaction was stopped with 2 N H2SO4 and read at 405 and/or 450 nm spectrophotometrically (Molecular Devices, CA).

SW480 cells = experiment: LPS-stimulated migration of SW480 cells; type: cell-based, human; details: LPS 1.0 μg/ml; SPA4 1, 10 and 50 μM; from 24 hours till 72 hours
Experimental: Cell migration: SW480 cells were plated in 30 mm tissue-culture-treated dishes at a density of 1.0×10^6 cells per plate. At 80-90% confluence, a “reference line” was drawn at the bottom of the plate. The cells were scratched off from one side of the reference line using a rubber policeman. A picture was taken at 0 t that helped in marking the “start line”. Cells were then washed with complete medium and incubated with LPS (1.0 μg/ml) and/or SPA4 peptide (1, 10 and 50 μM). Photomicrographs of cells migrated across the “start line” were taken in different fields after each treatment at 24, 48, and 72 hours (±2 hours) following traceable inscriptions made under the plate at three different points, with a Canon digital camera. On 24, 48 and 72 hour images, a second line was drawn along the edge of cells to represent the migration of cells. Cell migration was calculated by measuring the distance cells migrated from the “start line”. Only the continuous migration of cells was considered for measurement. The islets of cells were disregarded. The cell migration was calculated using the following formula: (distance between “start line” at 0 h—“reference line”)-(distance between “72 hours line”—“reference line”).

[2] = test system: LPS-induced acute inflammation; experiment: Mouse model of LPS-inflammation (endotoxic shock-like symptoms, TNF-α); type: in vivo, Balb/c Mice; details: mice; for LPS-induced clinical symptoms (endotoxic shock-like): LPS 0.1 μg/g body weight i.p., SPA4 2.5 μg/g, SP-A 0.5 μg/g; for LPS-induced circulatory TNF-α amounts: LPS 0.1 μg/g body weight, serum, ELISA; for LPS-induced TNF-α levels in lung tissue homogenates: LPS 1 μg/g or 15 μg/g body weight, treated at 1 hour, sacrificed at 5 hours
Experimental: In Example 5, the efficacy of SPA4 peptide in inhibiting LPS-induced acute inflammation was investigated in a mouse model of LPS-inflammation. Balb/c Mice were challenged with E. coli 0111:B4 highly purified, low protein-derived LPS (0.1 or 1 or 15 μg/g body wt) via an intraperitoneal route, one hour prior to treatment with SPA4 peptide (2.5 μg/g body weight) or full-length purified SP-A (0.5 μg/g body weight) via an intraperitoneal route. The mice were monitored for endotoxic-shock like clinical symptoms (including, but not limited to, ruffled fur, eye exudates, diarrhea, prostration, and lack of reactivity), and these symptoms were scored on the basis of severity from 0 to 3, and average clinical symptom indices were calculated for each animal based on the symptom grades (Metkar et al., 2007). Endotoxic-shock like clinical symptoms were noted (at 5 or 7 hours), and mice were sacrificed at different time-intervals after LPS challenge. Major organs and blood specimens were collected. Secreted amounts of TNF-α cytokine were measured in serum and lung tissue homogenates by ELISA method.

recombinant MD2 protein = molecular target: T2, recombinant MD2 protein (Homo sapiens, UniProt Q9Y6Y9); experiment: Microwell-based binding to immobilized recombinant MD2 protein; details: 0.25 μg MD2 per well
T2 construct: human MD-2 (mature region, Glu 17-Asn 160 amino acids); 10x histidine tag (C); signal peptide from human CD33 (N); purchased R&D Systems, MN; host or cells: mouse myeloma cell line NS0
T2 sequence (Q9Y6Y9 17-160): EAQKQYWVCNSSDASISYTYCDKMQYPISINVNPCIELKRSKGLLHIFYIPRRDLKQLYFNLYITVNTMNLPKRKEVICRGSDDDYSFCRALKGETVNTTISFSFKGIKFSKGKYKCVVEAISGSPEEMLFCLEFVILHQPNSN
Description: as §1, with “The chimeric proteins were expressed in a mouse myeloma cell line, NS0 (R&D Systems, MN). The proteins were obtained from the manufacturer in carrier-free condition and reconstituted in PBS containing 0.1% low-endotoxin BSA (MP Biomedicals, OH). MD2, an adaptor molecule for TLR4, is expressed by immune cells, and is known to bind TLR4 in a non-covalent manner (Jain et al., 2008). Thus, the binding of SP-A to the recombinant MD2 protein (R&D Systems, MN) was also studied.” left out
as §2, with “temperature.” for “temperature. The plates were washed three times, and non-specific sites were blocked for 2 h at room temperature using phosphate buffered saline containing 0.1% triton-X 100 and 3% nonfat milk (Buffer A).”

T1 sequence (O00206 24-631, one chain of several): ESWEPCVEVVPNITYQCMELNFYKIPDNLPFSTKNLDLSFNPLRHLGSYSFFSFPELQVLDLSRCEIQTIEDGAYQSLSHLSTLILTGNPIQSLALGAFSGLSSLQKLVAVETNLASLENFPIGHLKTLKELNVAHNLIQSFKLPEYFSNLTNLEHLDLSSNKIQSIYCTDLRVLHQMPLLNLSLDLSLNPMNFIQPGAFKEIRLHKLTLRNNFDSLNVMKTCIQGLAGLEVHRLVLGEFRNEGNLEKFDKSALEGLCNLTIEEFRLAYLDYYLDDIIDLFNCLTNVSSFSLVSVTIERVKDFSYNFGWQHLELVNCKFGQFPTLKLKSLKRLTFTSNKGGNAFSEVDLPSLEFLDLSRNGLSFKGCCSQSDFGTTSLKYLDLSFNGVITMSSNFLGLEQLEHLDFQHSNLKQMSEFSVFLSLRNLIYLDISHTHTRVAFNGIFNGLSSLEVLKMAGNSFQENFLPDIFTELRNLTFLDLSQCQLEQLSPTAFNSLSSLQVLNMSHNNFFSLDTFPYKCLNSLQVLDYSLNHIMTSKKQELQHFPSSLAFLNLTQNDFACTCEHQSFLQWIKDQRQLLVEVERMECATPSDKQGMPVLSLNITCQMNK

| Substance | binding to surface-bound TLR4-MD2 protein [1] | efficiency of binding to TLR4-MD2 protein compared with whole native SP-A protein ([1]; SPA4 2-20 μg versus SP-A 2-10 μg) | LPS-induced migration of SW480 cells (SW480 cells) | LPS-induced clinical symptoms (endotoxic shock-like) [2] | LPS-induced circulatory TNF-α amounts [2] | LPS-induced TNF-α levels in lung tissue homogenates [2] | binding to surface-bound MD2 protein (recombinant MD2 protein) |
| --- | --- | --- | --- | --- | --- | --- | --- |
| GDFRYSDGTPVNYTNWYRGE [SPA4, GDFRYSDGT PVNYTNWYRGE] | binds to TLR4-MD2 protein | less efficient | inhibited | inhibit | reduced | reduced | – |
| SP-A: native surfactant protein-A purified from bronchioalveolar lavage fluid of a normal healthy adult baboon (MWLCPLALTLTLMAASGAACEVKDVCVGSPGIPGTPGSHGLPGRDGRDGVKGDPGPP; listed as Papio cynocephalus) | showed binding | – | – | inhibit | reduced | low | found to bind |
